Measurements: ChEMBL document CHEMBL1201862, “PubChem BioAssay data set” (2004)
Each block holds one molecule with its values, some of them ahead of it. The source made the active and inactive calls.

Legend:
BJ [1] = experiment: BJ-TERT fibroblast viability loss – cell-based, RAS-independent, luminescence, dose response (AID 1933); type: functional; details: Homo sapiens
BJ [2] = experiment: growth inhibition of engineered Ras-driven BJ cells – cell-based, alamar blue fluorescence, cherrypicked samples, dose response (AID 2631); type: functional; details: Homo sapiens;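 further: confirmatory dose-response assay in RAS-dependent BJ fibroblasts engineered with TERT, LT and ST, with cytotoxicity read by fluorescence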
[3] = target: T1, DNA repair protein RAD52 homolog (Homo sapiens, UniProt P43351); type: functional, biochemical
T1 sequence (P43351 whole entry): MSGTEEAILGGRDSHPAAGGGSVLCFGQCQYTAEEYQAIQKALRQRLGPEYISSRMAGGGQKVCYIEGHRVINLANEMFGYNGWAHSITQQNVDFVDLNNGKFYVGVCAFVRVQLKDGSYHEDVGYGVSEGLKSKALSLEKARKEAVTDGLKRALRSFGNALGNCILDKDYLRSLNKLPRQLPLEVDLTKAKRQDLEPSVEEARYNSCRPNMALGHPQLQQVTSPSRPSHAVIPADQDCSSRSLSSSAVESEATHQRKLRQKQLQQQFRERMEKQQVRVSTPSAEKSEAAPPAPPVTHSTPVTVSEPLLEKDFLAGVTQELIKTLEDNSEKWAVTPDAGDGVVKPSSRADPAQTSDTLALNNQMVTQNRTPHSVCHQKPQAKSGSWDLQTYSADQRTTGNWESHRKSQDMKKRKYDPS

[4] = target: 26S proteasome non-ATPase regulatory subunit 14 (Homo sapiens, UniProt O00487); experiment: inhibition of proteasome subunit RPN11 – biochemical, fluorescence polarization, uHTS hits, confirmation (AID 602368); type: functional
Sequence of 26S proteasome non-ATPase regulatory subunit 14 (O00487 whole entry): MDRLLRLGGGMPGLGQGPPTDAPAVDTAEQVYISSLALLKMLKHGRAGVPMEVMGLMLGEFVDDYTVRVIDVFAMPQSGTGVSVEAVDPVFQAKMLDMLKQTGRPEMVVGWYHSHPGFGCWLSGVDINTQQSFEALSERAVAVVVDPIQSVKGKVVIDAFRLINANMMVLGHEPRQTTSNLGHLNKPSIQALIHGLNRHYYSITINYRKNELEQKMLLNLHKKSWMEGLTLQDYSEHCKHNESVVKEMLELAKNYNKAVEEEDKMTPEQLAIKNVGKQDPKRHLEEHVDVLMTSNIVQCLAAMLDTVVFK

BJ [5] = experiment: cells; type: functional, cell-based; details: Homo sapiens
Prothrombin = Prothrombin (Bos taurus, UniProt P00735); experiment: thrombin protease inhibitors – biochemical, fluorescence polarization, uHTS hits, dose response (AID 602369); type: functional
[6] = target: 72 kDa type IV collagenase (Homo sapiens, UniProt P08253); experiment: Dose Response validation of uHTS RPN11 inhibitor hits using a MMP-2 Fluorescence assay.; type: functional
Sequence of 72 kDa type IV collagenase (P08253 whole entry): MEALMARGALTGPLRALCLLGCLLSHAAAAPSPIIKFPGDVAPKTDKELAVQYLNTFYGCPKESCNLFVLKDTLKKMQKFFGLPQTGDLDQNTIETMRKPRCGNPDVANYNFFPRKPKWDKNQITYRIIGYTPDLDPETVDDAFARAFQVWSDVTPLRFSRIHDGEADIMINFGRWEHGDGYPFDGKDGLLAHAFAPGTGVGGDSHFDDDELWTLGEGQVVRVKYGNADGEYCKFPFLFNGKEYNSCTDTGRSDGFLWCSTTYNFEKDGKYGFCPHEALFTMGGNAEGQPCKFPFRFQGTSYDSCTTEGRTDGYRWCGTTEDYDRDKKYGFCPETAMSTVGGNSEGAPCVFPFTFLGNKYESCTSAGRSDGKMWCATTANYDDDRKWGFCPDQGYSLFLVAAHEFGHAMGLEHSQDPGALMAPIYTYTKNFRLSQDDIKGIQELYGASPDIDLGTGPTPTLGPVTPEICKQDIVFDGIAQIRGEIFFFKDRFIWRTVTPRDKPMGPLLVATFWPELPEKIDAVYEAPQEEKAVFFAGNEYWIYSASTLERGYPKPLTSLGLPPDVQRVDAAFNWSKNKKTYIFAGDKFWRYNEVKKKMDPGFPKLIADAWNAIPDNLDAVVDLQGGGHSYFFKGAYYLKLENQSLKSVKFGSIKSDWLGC

[7] = DRD fibroblast viability loss – cell-based, non-viral oncogenic, luminescence, dose response (AID 1934); type: functional; details: Homo sapiens
[8] = target: T2, Heat shock factor protein 1 (Mus musculus, UniProt P38532); experiment: decrease of HSF1-responsive luciferase luminescence – cell-based, NIH3T3, dose retest, confirmation (AID 2382); type: functional;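 further: NIH3T3 fibroblasts with HSF1-driven luciferase reporter stressed by proteasome inhibitor MG132; luminescence from HSF1-driven luciferase expression after 8 hours of MG132 stress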
T2 sequence (P38532 whole entry): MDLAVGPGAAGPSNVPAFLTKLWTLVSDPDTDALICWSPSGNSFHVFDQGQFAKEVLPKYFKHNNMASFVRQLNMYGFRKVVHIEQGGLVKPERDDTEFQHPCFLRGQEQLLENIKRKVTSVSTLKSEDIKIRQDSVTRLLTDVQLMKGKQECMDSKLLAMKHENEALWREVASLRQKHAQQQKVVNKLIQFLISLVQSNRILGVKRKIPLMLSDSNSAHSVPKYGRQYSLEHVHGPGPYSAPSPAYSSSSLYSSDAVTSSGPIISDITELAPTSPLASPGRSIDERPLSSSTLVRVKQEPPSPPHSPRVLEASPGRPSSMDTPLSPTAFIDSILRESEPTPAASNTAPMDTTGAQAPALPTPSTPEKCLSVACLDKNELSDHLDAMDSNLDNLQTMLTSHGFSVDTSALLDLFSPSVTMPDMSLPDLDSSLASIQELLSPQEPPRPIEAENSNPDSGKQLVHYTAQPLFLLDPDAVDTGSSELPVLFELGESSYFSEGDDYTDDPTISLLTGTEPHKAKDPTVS

BJ [9] = experiment: BJ-TERT-LT-ST fibroblast viability loss – cell-based, RAS-independent, luminescence, dose response (AID 1935); type: functional; details: Homo sapiens;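 further: BJ fibroblasts immortalized with TERT plus LT and ST oncogenes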
Protein Wnt-3a = Protein Wnt-3a (Mus musculus, UniProt P27467); experiment: antagonism of Wnt3a pathway luciferase reporter – Wnt-LIGHT cells, luminescence, selectivity assay for Gli-SUFU antagonist project, dose response (AID 651570); type: functional; details: read-out: IC50_Mean;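 further: Wnt-LIGHT reporter cells stimulated with conditioned medium from Wnt3a-producing cells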
Sequence of Protein Wnt-3a (P27467 whole entry): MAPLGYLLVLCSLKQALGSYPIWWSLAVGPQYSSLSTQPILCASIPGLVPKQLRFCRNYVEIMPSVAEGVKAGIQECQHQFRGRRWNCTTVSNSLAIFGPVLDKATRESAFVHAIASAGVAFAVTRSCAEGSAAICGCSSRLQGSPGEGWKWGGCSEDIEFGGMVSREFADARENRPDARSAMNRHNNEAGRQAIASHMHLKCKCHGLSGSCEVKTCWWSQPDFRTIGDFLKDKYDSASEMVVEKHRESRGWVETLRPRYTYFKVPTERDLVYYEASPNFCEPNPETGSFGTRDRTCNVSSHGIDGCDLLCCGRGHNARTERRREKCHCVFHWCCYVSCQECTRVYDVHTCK

INS1 = experiment: INS-1E survival protection against cytokine death – cell-based, luminescence, retest, dose response (AID 449756); type: functional; details: Rattus norvegicus;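 further: cell death triggered by IL-1 beta plus TNF-alpha plus IFN-gamma mixture; protective hits raise ATP signal compared with cytokine alone wells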
[10] = target: T3, Mitochondrial peptide methionine sulfoxide reductase (Bos taurus, UniProt P54149); experiment: Absorbance-based biochemical high throughput dose response assay for activators of Methionine sulfoxide reductase A (MsrA).; type: functional
T3 sequence (P54149 whole entry): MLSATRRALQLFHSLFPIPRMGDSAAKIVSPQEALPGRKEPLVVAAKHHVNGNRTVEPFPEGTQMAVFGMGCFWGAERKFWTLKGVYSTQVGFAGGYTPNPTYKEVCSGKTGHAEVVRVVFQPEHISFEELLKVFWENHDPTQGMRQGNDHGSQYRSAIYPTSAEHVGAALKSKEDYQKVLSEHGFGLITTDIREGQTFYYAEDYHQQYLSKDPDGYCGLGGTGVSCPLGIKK

SMILES: CCN1CCc2c(sc(NC(=O)c3cc4ccccc4cc3OC)c2C(N)=O)C1
EC50 (BJ [1]): 4.46 µM (inconclusive)
EC50 (BJ [2]): 0.937 µM (active)
AC50 [3]: 3.75 µM (active)
IC50 [4]: 26.3 µM (active)
EC50 (BJ [5]): 5.67 µM (inconclusive)
IC50 (Prothrombin): 32.5 µM (active)
IC50 [6]: > 100 µM (inactive)
EC50 [7]: 6.38 µM (active)
EC50 [8]: 40.7 µM (active)
EC50 (BJ [9]): 4.91 µM (inconclusive)

SMILES: CC(C)C(=O)NC(=S)/C=C1/N(C)c2ccccc2C1(C)C
IC50 (Protein Wnt-3a): 9.3 µM (active)
AC50 (INS1): 7.53 µM (active)

EC50 [10]: > 104 µM (inactive)
SMILES: COc1ccc(OC)c(/C=N/N(CCC#N)C2=NS(=O)(=O)c3ccccc32)c1
